Earlier results, collected in US6072029A, “Derivatives of human α1 -antitrypsin and process for their preparation” (priority 1984, dated 2000).
Like-named read-outs stand apart in the source and are kept apart here.

Tested on: thrombin

Substance: α1 -AT: natural human α1-antitrypsin, serine protease inhibitor
- inactivation of thrombin (increasing molar excess of α1-antitrypsin): completely inhibited
- inactivation of thrombin (molar ratio of 1:1): weak and incomplete
